Assay results from US20240025891A1 (Celgene Corporation, priority 2020, published 2024).
pIC50: −log10 of the molar value.

tested on: Dirofilaria immitis microfilariae and 4th stage larvae (L4); test: Heartworm screen Dirofilaria immitis (DiMF and DiL4 assays); assay type: cell-based; details: read-out: D. immitis Act class
Description: Heartworm Screen Dirofilaria immitis (D. immitis)
(§1) Dirofilaria immitis, Microfilaria (DiMF) Assay. Compounds were dissolved and serially diluted in DMSO. Aliquots were spotted to the empty wells of assay plates. Media and microfilariae of Dirofilaria immitis were added to each well to dilute the test compounds to the desired concentrations. Assay plates were incubated for approximately 72 hours, and the larvae in each well were observed microscopically for drug effect. Microfilariae in each well were assessed subjectively for survival or paralysis, and results were reported as Minimum Effective Dose (MED).
as §1, with “L4 stage (DiL4)” for “Microfilaria (DiMF)”, “4th stage larvae (L4)” for “microfilariae”, “Larvae” for “Microfilariae”
Active and selective (DiL4 vs. DiMF potency) example compounds were subsequently evaluated in heartworm positive dog studies to correlate the in vitro selectivity profile with in vivo effects on circulating microfilariae.

Row | Compound | pIC50
1 | Cc1ccc(-c2csc(Nc3cc(C)ccn3)n2)nc1 [Example 1, N-(4-Methylpyridin-2-yl)-4-(5-methylpyridin-2-yl)thiazol-2-amine] | > 6.70
2 | COc1cccnc1-c1csc(Nc2cc(C)ccn2)n1 [Example 7] | 6.30 to 6.70
3 | Cc1cccnc1Nc1nc(-c2ccc(OC3CC3)cn2)cs1 [Example 48] | 6.30 to 6.70
4 | CCOc1cccc(-c2csc(Nc3ncccc3C)n2)n1 [Example 71] | 5.30 to 6.30
5 | CCOc1cccnc1-c1csc(Nc2cc(C)ccn2)n1 [Example 72, 4-(3-ethoxypyridin-2-yl)-N-(4-methylpyridin-2-yl)thiazol-2-amine] | > 6.70
6 | CC(=O)N(C)c1cc(C(F)(F)F)cnc1Nc1nc(-c2cc(OC3COC3)ccn2)cs1 [Example 73, N-methyl-N-(2-(4-(4-(oxetan-3-yloxy)pyridin-2-yl)thiazol-2-ylamino)-5-(trifluoromethyl)pyridin-3-yl)acetamide] | 5.30 to 6.30
7 | CCOc1cnc(-c2csc(Nc3cc(C)ccn3)n2)c(C)c1 [Example 74, 4-(5-ethoxy-3-methylpyridin-2-yl)-N-(4-methylpyridin-2-yl)thiazol-2-amine] | > 6.70
8 | CCOc1cnc(-c2csc(Nc3ncccc3C)n2)c(C)c1 [Example 75, 4-(5-ethoxy-3-methylpyridin-2-yl)-N-(3-methylpyridin-2-yl)thiazol-2-amine] | > 6.70
9 | CC(=O)N(C)c1cc(C(F)(F)F)cnc1Nc1nc(-c2cc3c(cn2)N(C)CC3)cs1 [Example 76, N-methyl-N-(2-(4-(1-methyl-2,3-dihydro-1H-pyrrolo[2,3-c]pyridin-5-yl)thiazol-2-ylamino)-5-(trifluoromethyl)pyridin-3-yl)acetamide] | 5.30 to 6.30
10 | CCOc1cccnc1-c1csc(Nc2ncccc2C)n1 [Example 77, 4-(3-ethoxypyridin-2-yl)-N-(3-methylpyridin-2-yl)thiazol-2-amine] | > 6.70
11 | CCOc1cccc(-c2csc(Nc3cc(C)ccn3)n2)n1 [Example 78, 4-(6-ethoxypyridin-2-yl)-N-(4-methylpyridin-2-yl)thiazol-2-amine] | 5.30 to 6.30
12 | CCOc1ccc(-c2csc(Nc3ncc(F)cc3C)n2)nc1 [Example 79, 4-(5-ethoxypyridin-2-yl)-N-(5-fluoro-3-methylpyridin-2-yl)thiazol-2-amine] | 6.30 to 6.70
13 | CSc1ccc(-c2csc(Nc3ncccc3C)n2)nc1 [Example 80, N-(3-methylpyridin-2-yl)-4-(5-(methylthio)pyridin-2-yl)thiazol-2-amine] | > 6.70
14 | CCOc1ccc(-c2csc(Nc3ccc(C)cn3)n2)nc1 [Example 81, 4-(5-ethoxypyridin-2-yl)-N-(5-methylpyridin-2-yl)thiazol-2-amine] | > 6.70
15 | CC(=O)N(C)c1cc(C(F)(F)F)cnc1Nc1nc(-c2cc(OC(C)C)ccn2)cs1 [Example 82, N-(2-(4-(4-isopropoxypyridin-2-yl)thiazol-2-ylamino)-5-(trifluoromethyl)pyridin-3-yl)-N-methylacetamide] | 6.30 to 6.70
16 | CCOc1ccc(-c2csc(Nc3ncccc3C3CC3)n2)nc1 [Example 83, N-(3-cyclopropylpyridin-2-yl)-4-(5-ethoxypyridin-2-yl)thiazol-2-amine] | 5.30 to 6.30
17 | CCOc1ccc(-c2csc(Nc3ncc(C(F)(F)F)cc3C)n2)nc1 [Example 84, 4-(5-ethoxypyridin-2-yl)-N-(3-methyl-5-(trifluoromethyl)pyridin-2-yl)thiazol-2-amine] | 6.30 to 6.70
18 | CCOc1ccc(-c2csc(Nc3ccc(Cl)cn3)n2)nc1 [Example 85, N-(5-chloropyridin-2-yl)-4-(5-ethoxypyridin-2-yl)thiazol-2-amine] | 5.30 to 6.30
19 | CCOc1ccc(-c2csc(Nc3nc(C)ccc3C)n2)nc1 [Example 86, N-(3,6-dimethylpyridin-2-yl)-4-(5-ethoxypyridin-2-yl)thiazol-2-amine] | 6.30 to 6.70
20 | CCOc1ccc(Nc2nc(-c3ccc(OCC)cn3)cs2)nc1 [Example 87, N,4-bis(5-ethoxypyridin-2-yl)thiazol-2-amine] | > 6.70
21 | CCOc1ccc(-c2csc(Nc3ncc(C)cc3C)n2)nc1 [Example 88, N-(3,5-dimethylpyridin-2-yl)-4-(5-ethoxypyridin-2-yl)thiazol-2-amine] | > 6.70
22 | Cc1ccnc(Nc2nc(-c3ccc(Cl)cn3)cs2)c1 [Example 89, 4-(5-chloropyridin-2-yl)-N-(4-methylpyridin-2-yl)thiazol-2-amine] | 6.30 to 6.70
23 | CCOc1ccc(-c2csc(Nc3cccc(C)n3)n2)nc1 [Example 90, 4-(5-ethoxypyridin-2-yl)-N-(6-methylpyridin-2-yl)thiazol-2-amine] | 5.30 to 6.30

Row | Compound | pIC50
24 | CCOc1ccc(-c2csc(Nc3cc(C)ccn3)n2)nc1 [Example 91, 4-(5-ethoxypyridin-2-yl)-N-(4-methylpyridin-2-yl)thiazol-2-amine] | > 6.70
25 | Cc1ccnc(Nc2nc(-c3ncccc3C#N)cs2)c1 [Example 92, 2-(2-(4-methylpyridin-2-ylamino)thiazol-4-yl)nicotinonitrile] | 5.30 to 6.30
26 | CC(=O)N(C)c1cc(C(F)(F)F)cnc1Nc1nc(-c2ccc(OC(C)C)cn2)cs1 [Example 93, N-(2-(4-(5-isopropoxypyridin-2-yl)thiazol-2-ylamino)-5-(trifluoromethyl)pyridin-3-yl)-N-methylacetamide] | 5.30 to 6.30
27 | Cc1cccnc1Nc1nc(-c2ccc(Cl)cn2)cs1 [Example 94, 4-(5-chloropyridin-2-yl)-N-(3-methylpyridin-2-yl)thiazol-2-amine] | 6.30 to 6.70
28 | CCOc1ccc(-c2csc(Nc3ccc(C(F)(F)F)cn3)n2)nc1 [Example 95, 4-(5-ethoxypyridin-2-yl)-N-(5-(trifluoromethyl)pyridin-2-yl)thiazol-2-amine] | > 6.70
29 | COc1ccnc(-c2csc(Nc3ncc(C(F)(F)F)cc3N(C)C(C)=O)n2)c1 [Example 96, N-(2-(4-(4-methoxypyridin-2-yl)thiazol-2-ylamino)-5-(trifluoromethyl)pyridin-3-yl)-N-methylacetamide] | 6.30 to 6.70
30 | Cc1cc(C(F)(F)F)cnc1Nc1nc(-c2cc3c(cn2)N(C)CC3)cs1 [Example 97, 4-(1-methyl-2,3-dihydro-1H-pyrrolo[2,3-c]pyridin-5-yl)-N-(3-methyl-5-(trifluoromethyl)pyridin-2-yl)thiazol-2-amine] | > 6.70
31 | Cc1ccnc(Nc2nc(-c3cc(OC4CN(C)C4)ccn3)cs2)c1 [Example 98, 4-(4-(1-methylazetidin-3-yloxy)pyridin-2-yl)-N-(4-methylpyridin-2-yl)thiazol-2-amine] | 5.30 to 6.30
32 | Cc1ccnc(-c2csc(Nc3ncccc3-c3ccccc3)n2)c1 [Example 99, 4-(4-methylpyridin-2-yl)-N-(3-phenylpyridin-2-yl)thiazol-2-amine] | > 6.70
33 | Cc1cccnc1-c1csc(Nc2cc(-c3ccccc3)ccn2)n1 [Example 100, 4-(3-methylpyridin-2-yl)-N-(4-phenylpyridin-2-yl)thiazol-2-amine] | 6.30 to 6.70
34 | Cc1ccnc(Nc2nc(-c3cc(-c4ccccc4)ccn3)cs2)c1 [Example 101, N-(4-methylpyridin-2-yl)-4-(4-phenylpyridin-2-yl)thiazol-2-amine] | > 6.70
35 | Cc1ccnc(Nc2nc(-c3cc(OC4COC4)ccn3)cs2)c1 [Example 102, N-(4-methylpyridin-2-yl)-4-(4-(oxetan-3-yloxy)pyridin-2-yl)thiazol-2-amine] | 5.30 to 6.30
36 | Cc1ccnc(Nc2nc(-c3ncccc3-c3ccccc3)cs2)c1 [Example 103, N-(4-methylpyridin-2-yl)-4-(3-phenylpyridin-2-yl)thiazol-2-amine] | > 6.70
37 | COc1ccnc(Nc2nc(-c3ccccn3)cs2)c1 [Example 121, N-(4-methoxypyridin-2-yl)-4-(pyridin-2-yl)thiazol-2-amine] | 6.30 to 6.70
38 | Cc1cnc(Nc2nc(-c3ccccn3)cs2)c(C)c1 [Example 124, N-(3,5-dimethyl-pyridin-2-yl)-4-(pyridin-2-yl)thiazol-2-amine] | > 6.70
39 | c1ccc(-c2cccnc2Nc2nc(-c3ccccn3)cs2)cc1 [Example 125, N-(3-phenylpyridin-2-yl)-4-(pyridin-2-yl)thiazol-2-amine] | 5.30 to 6.30
40 | c1ccc(-c2ccnc(Nc3nc(-c4ccccn4)cs3)c2)cc1 [Example 126, N-(4-phenylpyridin-2-yl)-4-(pyridin-2-yl)thiazol-2-amine] | > 6.70
41 | CC(C)c1cnc(Nc2nc(-c3ccccn3)cs2)cc1C(F)(F)F [Example 127, N-(5-isopropyl-4-(trifluoro-methyl)pyridin-2-yl)-4-(pyridin-2-yl)thiazol-2-amine] | > 6.70
42 | c1ccc(-c2csc(Nc3cc4ccccc4cn3)n2)nc1 [Example 128, N-(isoquinolin-3-yl)-4-(pyridin-2-yl)thiazol-2-amine] | 6.30 to 6.70
43 | Cc1cnc(Nc2nc(-c3ccccn3)cs2)cc1C(F)(F)F [Example 129, N-(5-methyl-4-(trifluoro-methyl)pyridin-2-yl)-4-(pyridin-2-yl)thiazol-2-amine] | > 6.70
44 | CCc1cnc(Nc2nc(-c3ccccn3)cs2)cc1C(F)(F)F [Example 130, N-(5-ethyl-4-(trifluoro-methyl)pyridin-2-yl)-4-(pyridin-2-yl)thiazol-2-amine] | > 6.70
45 | Cc1ccnc(Nc2nc(-c3ccccn3)c(C)s2)c1 [Example 132, 5-methyl-N-(4-methyl-pyridin-2-yl)-4-(pyridin-2-yl)thiazol-2-amine] | 6.30 to 6.70
46 | c1ccc(-c2csc(Nc3ccc4cc[nH]c4n3)n2)nc1 [Example 134, 4-(pyridin-2-yl)-N-(1H-pyrrolo [2,3-b]pyridin-6-yl)thiazol-2-amine] | 5.30 to 6.30
